Measurements published in publication PMC10988762, “Inhibition of malaria and babesiosis parasites by putative red blood cell targeting small molecules” (Frontiers in Cellular and Infection Microbiology, 2024).
Where two headings read alike, the source gives them in different places.

Assays:
P. falciparum strain 3D7 = test: Inhibitor susceptibility dose-response assay (SYBR-Green I), P. falciparum 3D7; type: cell-based, Plasmodium falciparum; conditions: read-out: IC50 (S.D.), P. falciparum-3D7
Experimental: (§1) The P. falciparum strains 3D7 and Dd2 were obtained from the Walter and Eliza Hall Institute (Melbourne, Australia) and the Malaria Research and Reference Reagent Resource, respectively. […] B. divergens parasites were maintained and assayed in mixed stages without synchronization.
(§2) Ring-stage P. falciparum (1%-parasitemia starting, 1%-hematocrit) and asynchronous B.divergens (0.5%-parasitemia starting, 3%-hematocrit) were incubated with plated compounds for 72h, and ring-stage P. knowlesi (1%-parasitemia starting, 1%-hematocrit) for 48h, before lysis and staining with dye. To quantify the species-specificity of the inhibitors, we divided the range of IC50s across the 4 test lines by the average IC50 across the same lines: inhibitors with increased scores show species-specific activity and reduced scores indicate broad-spectrum, pan-species activity.

P. falciparum strain Dd2 = test: Inhibitor susceptibility dose-response assay (SYBR-Green I), P. falciparum Dd2; type: cell-based, Plasmodium falciparum; conditions: read-out: IC50 (S.D.), P. falciparum-Dd2
Experimental: as §1, §2

AQP3 = test system: AQP3; design: method as in PMID 22624030; conditions: RBC assay: AQP3 glycerol conductance ref PMID 22624030; read-out: Micromolar IC50 (RBC), AQP3 glycerol conductance; cited from earlier work
P. knowlesi YH1 strain = test: microbe, parasite or virus in culture; type: cell-based, Plasmodium knowlesi; conditions: read-out: IC50 (S.D.), P. knowlesi
Experimental: as §1, §2

[1] = test system: BdC9 line of B. divergens; test: Inhibitor susceptibility dose-response assay (SYBR-Green I), B. divergens; type: cell-based, Babesia divergens; conditions: for IC50: read-out: IC50 (S.D.), B. divergens; for fold lower IC50s against B. divergens than the Plasmodium spp.: B. divergens vs Plasmodium spp.
Experimental: as §1, §2

uninfected RBCs [2] = conditions: for hemolysis of RBCs, in words: 5x P. falciparum 3D7-IC50, 24, 48, 72h
From the text: (§3) We analyzed samples using a volumetric MACSQuant Analyzer Flow Cytometer (Miltenyi Biotec), manually resuspending each row immediately prior to sample uptake. We recorded 10,000 total events for each condition at the instrument-defined low flow rate. We assessed all compounds in 2 separate experiments with blood from different donors. […] All samples were gated for single cell events.

uninfected RBCs [3] = test: Cellular phosphatidylserine exposure assay (annexin V flow cytometry);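 also: flow cytometry recording 10,000 events per condition, gated on single cells, with the two experiments using blood from separate donors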
From the text: as §3

in vitro = conditions: human
From the text: as §3

[4] = test system: breast cancer cell line panel; design: method as in PMID 21159648; conditions: cellular proliferation ref PMID 21159648; read-out: Micromolar IC50 (breast cancer cell line panel); cited from earlier work
[5] = test system: AP-1 transcription factor activation; design: method as in PMID 17175522; conditions: ref PMID 17175522; read-out: Micromolar IC50 (AP-1 transcription factor activation); cited from earlier work
[6] = test system: serum- or growth factor induced fibroblasts; design: method as in PMID 8519682; conditions: cellular proliferation ref PMID 8519682; read-out: Micromolar IC50 (serum- or growth factor induced fibroblasts); cited from earlier work
human epithelial cells = test system: human epithelial cells; design: method as in PMID 17145850; conditions: cellular proliferation ref PMID 17145850; read-out: Micromolar IC50 (human epithelial cells); cited from earlier work
[7] = test system: alloresponsive T cell proliferation; design: method as in PMID 24131367; conditions: ref PMID 24131367; read-out: Micromolar IC50 (alloresponsive T cell proliferation); cited from earlier work
[8] = biological target: ELK1-luciferase assay, HeLa; conditions: read-out: Micromolar IC50 (ELK1-luciferase assay, HeLa); ref PMID 15225706; cited from earlier work
HCT-116 = conditions: read-out: Micromolar IC50 (anchorage formation, HCT-116); ref PMID 15225706; cited from earlier work
P. falciparum (3D7) = test: Assay for inhibition of parasite proliferation via RBC-targeting (transient exposure of RBCs, wash, then infection); type: cell-based, Plasmodium falciparum
Experimental: All plates were frozen for storage before assay. For assay, duplicate plates were preincubated with donor O+ RBCs at 2% hematocrit at 37°C in 50µL for 4-5 hours. Following preincubation, one but not the other plate in each pair was washed 4X in complete RPMI to dilute inhibitor. We transferred RBCs from both washed and unwashed plates to black, clear bottom 96-well plates (Corning Cat. No. 3904) and supplemented these suspensions with MACS-purified P. falciparum (3D7) schizonts for a starting parasitemia of 0.1% - 0.25% at 1% hematocrit. Following 72h incubation in standard culture conditions, samples were processed for SYBR-Green I signal ([Mandt et al., 2019]). […] To identify host-targeting compounds, we compared DMSO-treated to inhibitor-treated samples (Students t-test, paired). We carried out the assay with 1 µM mefloquine (Sigma-Aldrich Cat. No. M2319) as a control for reversible inhibition. All assays were conducted in biological triplicate, with each experiment utilizing different donor RBCs. For select compounds, we carried out this same assay in a dose-response series (n=3 experiments). Following normalization to DMSO-controls, we assessed inhibitor activity following transient exposure of RBCs by Two-Way ANOVA tests for repeated measures (Graphpad Prism v9): high P values indicate support for the null hypothesis that dose-dependent inhibition is not modulated by dilution after exposure, consistent with a direct inhibitory effect of the compounds on RBCs persisting after transient exposure.

sickle RBCs = test system: sickle RBCs; design: method as in PMID 33208899; conditions: RBC assay: PS exposure in sickle RBCs ref PMID 33208899; read-out: Micromolar IC50 (RBC), PS exposure in sickle RBCs; cited from earlier work
[9] = 72h, ring-stage, n=3 experiments (or 2 where indicated with *)
[10] = Plasmodium falciparum, 3D7, 72h, ring-stage, n=3 experiments (or 2 where indicated with *)
[11] = Plasmodium falciparum, DD2, 72h, ring-stage, n=3 experiments (or 2 where indicated with *)
[12] = Babesia divergens, 72h, asynchronous, n=3 experiments (or 2 where indicated with *)
[13] = 24h, 5x P. falciparum 3D7-IC50, % of RBCs, mean of 2 experiments
[14] = 48h, 5x P. falciparum 3D7-IC50, % of RBCs, mean of 2 experiments
[15] = Plasmodium falciparum, 3D7, 72 h
[16] = Plasmodium falciparum, DD2, 72 h
[17] = uninfected RBCs (red blood cells), 1% hematocrit
[18] = 72h, 5x P. falciparum 3D7-IC50, % of RBCs, mean of 2 experiments

Row | SMILES | Phosphatidylserine exposure (%) 72h (uninfected RBCs [3]) | IC50 (P. knowlesi YH1 strain; Plasmodium knowlesi, 48 h) | Phosphatidylserine exposure (%) 24h (uninfected RBCs [3]; [13]) | Phosphatidylserine exposure (%) 48h (uninfected RBCs [3]; [14]) | IC50 (P. falciparum strain 3D7; [15]) | IC50 (P. falciparum strain Dd2; [16]) | hemolysis at 24 h, 5 x P. falciparum 3D7-IC50 (in vitro; [17]) | hemolysis at 48 h, 5 x P. falciparum 3D7-IC50 (in vitro; [17]) | hemolysis at 72 h, 5 x P. falciparum 3D7-IC50 (in vitro; [17]) | IC50 ([1]; Babesia divergens, 72 h) | Phosphatidylserine exposure (%) 72h (uninfected RBCs [3]; [18]) | other results
1 | [Cl][Au]([Cl])[Cl].c1cnc2c(c1)ccc1cccnc12 [Auphen] | 24% | – | – | – | – | – | – | – | – | – | – | IC50 (P. falciparum strain 3D7; [9]): 1.1 µM; IC50 (P. falciparum strain Dd2; [9]): 0.61 µM; IC50 (AQP3): 0.8 µM; IC50 (P. knowlesi YH1 strain; 48h, ring-stage, n=3 experiments (or 2 where indicated with *)): 2 µM; IC50 ([1]; 72h, asynchronous, n=3 experiments (or 2 where indicated with *)): 2.8 µM; Hemolysis (%) 24h (uninfected RBCs [2]): -7%; Hemolysis (%) 48h (uninfected RBCs [2]): 5%; Hemolysis (%) 72h (uninfected RBCs [2]): 10. %; Phosphatidylserine exposure (%) 24h (uninfected RBCs [3]): 3%; Phosphatidylserine exposure (%) 48h (uninfected RBCs [3]): 10. %
2 | O=C(O)c1ccc2c(c1)nc(Nc1cccc(Cl)c1)c1ccncc12 [CX-4945] | 3% | 9 µM | 2% | 2% | – | – | – | – | – | – | – | IC50 (P. falciparum strain 3D7; [10]): 9 µM; IC50 (P. falciparum strain Dd2; [11]): 6 µM; hemolysis at 24 h, 5 x P. falciparum 3D7-IC50 (in vitro): -4%; hemolysis at 48 h, 5 x P. falciparum 3D7-IC50 (in vitro): -1%; hemolysis at 72 h, 5 x P. falciparum 3D7-IC50 (in vitro): 16%; IC50 [1, 12]: 10 µM; IC50 [4]: 1.7 to 20 µM; hemolysis of RBCs, in words (uninfected RBCs [2]): similarly low levels; PS exposure on RBCs, in words (uninfected RBCs [3]; 5x P. falciparum 3D7-IC50, 24, 48, 72h): similarly low levels
3 | COc1ccc2c(c1)c(C1=C(c3c[nH]c4ccccc34)C(=O)NC1=O)cn2CCCN(C)C [Go6983] | 4% | 4 µM | 2% | 2% | 2 µM | 2 µM | -7% | 5% | 12% | 0.5 µM | – | IC50 [5]: 0.1 µM; fold lower IC50s against B. divergens than the Plasmodium spp. [1]: at least 3 fold
4 | COc1ccc(S(=O)(=O)N(CCO)c2ccccc2CN(C)C/C=C/c2ccc(Cl)cc2)cc1 [KN-93 Phosphate] | – | 5 µM | 2% | 2% | 3.9 µM | 3 µM | -4% | 7% | 16% | 6 µM | 4% | IC50 [6]: 6 to 12 µM
5 | CN(C)CCOc1ccc(-c2nc(-c3ccncc3)c(-c3ccc4c(c3)CC/C4=N\O)[nH]2)cc1 [SB590885] | – | 1.4 µM | 2% | 2% | 0.7 µM | 1 µM | -4% | 4% | 11% | 4 µM | 4% | IC50 (human epithelial cells): 1.1 to 6.1 µM
6 | CN1CCN(c2nc(C3=C(c4c[nH]c5ccccc45)C(=O)NC3=O)c3ccccc3n2)CC1 [Sotrastaurin] | – | 5 µM | 2% | 2% | – | – | -7% | 9% | 17% | – | 4% | IC50 [7]: 0.09 µM; IC50 (P. falciparum strain 3D7; [10]): 5 µM; IC50 (P. falciparum strain Dd2; [11]): 3 µM; IC50 [1, 12]: 10 µM
7 | N#CC(=C(N)Sc1ccccc1N)C(C#N)=C(N)Sc1ccccc1N [U0126] | 9% | 20 µM | 2% | – | 5.3 µM | 3.9 µM | – | – | – | 30 µM | – | IC50 [8]: 0.293 µM; hemolysis at 24 h, 5 x P. falciparum 3D7-IC50 (in vitro): 3%; hemolysis at 48 h, 5 x P. falciparum 3D7-IC50 (in vitro): 9%; hemolysis at 72 h, 5 x P. falciparum 3D7-IC50 (in vitro): 20%; IC50 (HCT-116): 19.4 µM; Phosphatidylserine exposure (%) 48h (uninfected RBCs [3]): 4%
8 | Clc1cccc(Cl)c1CSc1nnc(-c2cnccn2)s1 [Yoda1] | – | 7 µM | – | 100. % | 4.2 µM | 6 µM | 7% | 38% | 57% | 1.11 µM | 100. % | antimalarial activity retained after transient exposure of RBCs, relative to continuous exposure to inhibitor (P. falciparum (3D7); 5x P. falciparum 3D7-IC50, RBC preincubation 4-5 hours then washed, 100% = inhibition with continuous exposure, P<0.01): ≥ 80%; inhibitory activity following transient exposure of RBCs, in words (P. falciparum (3D7); transient vs continued exposure, dose-response format where stated, n=3): statistically indistinguishable from inhibition with continued exposure; fold lower IC50s against B. divergens than the Plasmodium spp. [1]: at least 3 fold; IC50 (sickle RBCs): ~2 µM; hemolysis of RBCs, in words (uninfected RBCs [2]): rapid onset of hemolysis comparable to control compound A23187
